Measurements: paper PMC4685510, “A Cell Biologist’s Field Guide to Aurora Kinase Inhibitors” (Frontiers in Oncology, 2015)

Assays:
Test in all cases: biochemical
Assay type in all cases: biochemical
[1] = target: 363 human kinases (including Aurora A/B/C) (Homo sapiens, UniProt P22694); details: PKAcb; for remaining activity at 0.1 µM: 100 nM; for remaining activity at 0.1 µM / remaining activity at 0.5 µM: read-out: % Enzyme Activity (relative to DMSO controls)
Source text: (§1) However, the Aurora A/B selectivity ratios derived from our in vitro and in vivo data can be compared to prioritize inhibitors.

[2] = target: 363 human kinases (including Aurora A/B/C) (Homo sapiens, UniProt P11309); details: PIM1; for remaining activity at 0.1 µM: 100 nM; for remaining activity at 0.1 µM / remaining activity at 0.5 µM: read-out: % Enzyme Activity (relative to DMSO controls)
363 human kinases (including Aurora A/B/C) (Homo sapiens, UniProt P11309), sequence (P11309 whole entry): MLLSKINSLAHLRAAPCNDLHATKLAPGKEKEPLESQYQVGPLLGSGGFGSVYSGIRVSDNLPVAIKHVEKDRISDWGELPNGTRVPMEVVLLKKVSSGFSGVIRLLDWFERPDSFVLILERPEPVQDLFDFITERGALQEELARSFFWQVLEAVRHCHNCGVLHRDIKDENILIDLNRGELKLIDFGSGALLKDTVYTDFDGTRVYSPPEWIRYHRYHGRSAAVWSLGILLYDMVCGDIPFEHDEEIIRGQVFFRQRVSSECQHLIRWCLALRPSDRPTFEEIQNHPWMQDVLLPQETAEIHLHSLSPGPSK
Source text: as §1

[3] = target: T1, 363 human kinases (including Aurora A/B/C) (Homo sapiens, UniProt Q15835); details: GRK1; for remaining activity at 0.1 µM: 100 nM; for remaining activity at 0.1 µM / remaining activity at 0.5 µM: read-out: % Enzyme Activity (relative to DMSO controls)
T1 sequence (Q15835 1-563): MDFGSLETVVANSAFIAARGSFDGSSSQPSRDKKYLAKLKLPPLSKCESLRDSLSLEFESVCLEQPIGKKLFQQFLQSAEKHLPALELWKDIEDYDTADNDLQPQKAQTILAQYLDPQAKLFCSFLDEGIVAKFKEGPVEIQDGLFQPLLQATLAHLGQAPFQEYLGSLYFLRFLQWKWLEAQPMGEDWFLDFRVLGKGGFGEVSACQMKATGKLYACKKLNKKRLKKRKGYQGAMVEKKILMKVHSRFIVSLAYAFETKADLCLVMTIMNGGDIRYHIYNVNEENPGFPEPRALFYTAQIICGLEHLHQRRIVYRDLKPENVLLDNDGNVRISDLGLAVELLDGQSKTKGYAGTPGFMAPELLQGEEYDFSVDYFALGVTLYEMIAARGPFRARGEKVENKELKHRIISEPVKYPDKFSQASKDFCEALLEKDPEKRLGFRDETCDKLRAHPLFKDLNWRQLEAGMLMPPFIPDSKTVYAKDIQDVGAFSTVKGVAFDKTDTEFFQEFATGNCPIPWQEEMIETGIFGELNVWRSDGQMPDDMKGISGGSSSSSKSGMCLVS
Source text: as §1

[4] = target: 363 human kinases (including Aurora A/B/C) (Homo sapiens, UniProt O94921); details: CDK14/cyclin Y (PFTK1), [ATP] 10 µM; for remaining activity at 0.1 µM: 100 nM; for remaining activity at 0.1 µM / remaining activity at 0.5 µM: read-out: % Enzyme Activity (relative to DMSO controls)
363 human kinases (including Aurora A/B/C) (Homo sapiens, UniProt O94921), sequence (O94921 whole entry): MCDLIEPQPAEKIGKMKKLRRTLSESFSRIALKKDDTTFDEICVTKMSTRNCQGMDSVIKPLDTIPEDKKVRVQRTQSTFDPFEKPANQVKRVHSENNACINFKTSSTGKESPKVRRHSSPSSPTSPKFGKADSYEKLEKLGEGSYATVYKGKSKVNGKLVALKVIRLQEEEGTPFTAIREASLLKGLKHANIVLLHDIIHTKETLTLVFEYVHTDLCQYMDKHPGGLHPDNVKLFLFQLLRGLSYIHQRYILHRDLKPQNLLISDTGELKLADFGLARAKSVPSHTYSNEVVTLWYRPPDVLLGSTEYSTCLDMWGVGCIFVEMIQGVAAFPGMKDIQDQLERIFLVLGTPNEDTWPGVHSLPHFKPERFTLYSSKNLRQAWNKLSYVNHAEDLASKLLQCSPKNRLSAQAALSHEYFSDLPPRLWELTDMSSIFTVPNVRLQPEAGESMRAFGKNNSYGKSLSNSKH
Source text: as §1

[5] = target: 363 human kinases (including Aurora A/B/C) (Homo sapiens, UniProt Q16620); details: TRKB; for remaining activity at 0.1 µM: 100 nM
363 human kinases (including Aurora A/B/C) (Homo sapiens, UniProt Q16620), sequence (Q16620 32-822): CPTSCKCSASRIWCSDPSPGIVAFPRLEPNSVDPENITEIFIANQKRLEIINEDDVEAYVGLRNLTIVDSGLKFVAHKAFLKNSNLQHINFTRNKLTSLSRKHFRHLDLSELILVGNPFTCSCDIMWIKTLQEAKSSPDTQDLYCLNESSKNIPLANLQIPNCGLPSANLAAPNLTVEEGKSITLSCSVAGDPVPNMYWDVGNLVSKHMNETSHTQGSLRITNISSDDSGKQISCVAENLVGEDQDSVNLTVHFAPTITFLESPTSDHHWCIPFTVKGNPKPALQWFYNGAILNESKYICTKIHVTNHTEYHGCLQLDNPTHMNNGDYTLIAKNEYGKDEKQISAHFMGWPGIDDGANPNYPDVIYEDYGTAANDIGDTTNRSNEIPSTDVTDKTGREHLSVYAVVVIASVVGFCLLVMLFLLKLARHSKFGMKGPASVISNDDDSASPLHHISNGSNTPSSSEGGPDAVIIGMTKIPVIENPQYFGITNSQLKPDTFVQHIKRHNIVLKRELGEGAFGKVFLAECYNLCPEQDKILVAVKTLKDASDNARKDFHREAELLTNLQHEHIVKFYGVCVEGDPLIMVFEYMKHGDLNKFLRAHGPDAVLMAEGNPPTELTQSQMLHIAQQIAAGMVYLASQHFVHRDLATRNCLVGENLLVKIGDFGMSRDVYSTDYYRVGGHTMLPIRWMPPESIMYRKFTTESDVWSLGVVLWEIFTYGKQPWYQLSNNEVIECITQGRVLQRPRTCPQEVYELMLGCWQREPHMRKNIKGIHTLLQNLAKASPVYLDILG
Source text: as §1

[6] = target: 363 human kinases (including Aurora A/B/C) (Homo sapiens, UniProt P22612); details: PKAcg; for remaining activity at 0.1 µM: 100 nM; for remaining activity at 0.1 µM / remaining activity at 0.5 µM: read-out: % Enzyme Activity (relative to DMSO controls)
363 human kinases (including Aurora A/B/C) (Homo sapiens, UniProt P22612), sequence (P22612 whole entry): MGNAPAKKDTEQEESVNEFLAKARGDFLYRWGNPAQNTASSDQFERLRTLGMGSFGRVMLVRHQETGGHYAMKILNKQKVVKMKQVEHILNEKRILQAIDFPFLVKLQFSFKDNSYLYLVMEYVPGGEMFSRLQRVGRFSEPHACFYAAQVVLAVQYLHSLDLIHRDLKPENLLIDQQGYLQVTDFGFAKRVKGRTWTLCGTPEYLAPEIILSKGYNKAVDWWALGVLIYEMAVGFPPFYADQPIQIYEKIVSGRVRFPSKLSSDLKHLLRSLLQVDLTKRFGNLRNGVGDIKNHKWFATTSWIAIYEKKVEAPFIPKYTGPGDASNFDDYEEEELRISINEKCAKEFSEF
Source text: as §1

[7] = target: 363 human kinases (including Aurora A/B/C) (Homo sapiens, UniProt P19784); details: CK2a2, [ATP] 30 µM; for remaining activity at 0.1 µM: 100 nM; for remaining activity at 0.1 µM / remaining activity at 0.5 µM: read-out: % Enzyme Activity (relative to DMSO controls)
363 human kinases (including Aurora A/B/C) (Homo sapiens, UniProt P19784), sequence (P19784 whole entry): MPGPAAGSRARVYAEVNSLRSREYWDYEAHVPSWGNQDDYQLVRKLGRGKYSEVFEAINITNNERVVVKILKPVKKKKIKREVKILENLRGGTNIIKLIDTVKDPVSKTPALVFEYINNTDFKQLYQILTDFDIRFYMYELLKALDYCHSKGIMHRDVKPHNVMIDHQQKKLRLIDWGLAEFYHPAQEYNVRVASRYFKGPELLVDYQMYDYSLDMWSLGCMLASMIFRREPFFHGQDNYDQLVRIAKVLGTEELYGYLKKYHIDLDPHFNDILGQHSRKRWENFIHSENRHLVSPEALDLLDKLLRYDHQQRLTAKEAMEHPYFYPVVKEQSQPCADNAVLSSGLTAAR
Source text: as §1

[8] = target: T2, 363 human kinases (including Aurora A/B/C) (Homo sapiens, UniProt Q96PY6); details: NEK1; for remaining activity at 0.1 µM: 100 nM; for remaining activity at 0.1 µM / remaining activity at 0.5 µM: read-out: % Enzyme Activity (relative to DMSO controls)
T2 sequence (Q96PY6 1-1258): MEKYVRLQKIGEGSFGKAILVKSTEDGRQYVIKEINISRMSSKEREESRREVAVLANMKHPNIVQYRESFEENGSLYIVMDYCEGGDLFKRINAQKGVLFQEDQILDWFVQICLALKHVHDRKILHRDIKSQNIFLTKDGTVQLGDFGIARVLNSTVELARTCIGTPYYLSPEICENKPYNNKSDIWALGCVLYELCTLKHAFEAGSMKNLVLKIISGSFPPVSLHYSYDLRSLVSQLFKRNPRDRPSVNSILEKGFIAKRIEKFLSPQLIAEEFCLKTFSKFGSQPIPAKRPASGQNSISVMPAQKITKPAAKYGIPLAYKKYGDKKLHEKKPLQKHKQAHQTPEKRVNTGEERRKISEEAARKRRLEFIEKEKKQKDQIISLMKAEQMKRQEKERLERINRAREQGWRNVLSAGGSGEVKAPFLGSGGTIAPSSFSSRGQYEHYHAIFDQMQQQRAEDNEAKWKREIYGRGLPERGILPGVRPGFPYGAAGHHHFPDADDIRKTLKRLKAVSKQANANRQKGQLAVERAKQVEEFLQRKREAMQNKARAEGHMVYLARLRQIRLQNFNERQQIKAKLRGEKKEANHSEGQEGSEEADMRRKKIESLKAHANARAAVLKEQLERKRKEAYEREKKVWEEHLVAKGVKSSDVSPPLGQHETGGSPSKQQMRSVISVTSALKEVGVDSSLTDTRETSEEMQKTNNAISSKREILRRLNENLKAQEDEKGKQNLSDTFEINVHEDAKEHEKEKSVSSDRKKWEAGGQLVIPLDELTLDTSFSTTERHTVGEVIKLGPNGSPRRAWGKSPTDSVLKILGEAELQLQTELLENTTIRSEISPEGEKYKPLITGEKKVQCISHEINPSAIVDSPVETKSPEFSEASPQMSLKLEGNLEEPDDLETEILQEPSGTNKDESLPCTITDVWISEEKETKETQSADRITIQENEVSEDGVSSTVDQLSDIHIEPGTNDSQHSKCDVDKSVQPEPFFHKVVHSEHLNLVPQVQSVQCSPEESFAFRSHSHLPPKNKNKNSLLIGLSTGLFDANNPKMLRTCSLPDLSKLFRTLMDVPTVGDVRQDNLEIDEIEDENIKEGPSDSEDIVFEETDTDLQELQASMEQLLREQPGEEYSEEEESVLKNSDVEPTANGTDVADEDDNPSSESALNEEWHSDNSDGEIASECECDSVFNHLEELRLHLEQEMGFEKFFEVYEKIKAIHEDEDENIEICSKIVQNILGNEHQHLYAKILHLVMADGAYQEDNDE
Source text: as §1

[9] = read-out: % Enzyme Activity (relative to DMSO controls)

Structure (SMILES)	remaining activity at 0.1 µM [1] [%]	remaining activity at 0.1 µM [2] [%]	remaining activity at 0.1 µM [3] [%]	remaining activity at 0.1 µM [4] [%]	remaining activity at 0.1 µM [5, 9] [%]	remaining activity at 0.1 µM [6] [%]	remaining activity at 0.1 µM [7] [%]	remaining activity at 0.1 µM [8] [%]	remaining activity at 0.5 µM ([1]; 500 nM) [%]	remaining activity at 0.5 µM ([2]; 500 nM) [%]	remaining activity at 0.5 µM ([3]; 500 nM) [%]	remaining activity at 0.5 µM ([4]; 500 nM) [%]	remaining activity at 0.5 µM ([6]; 500 nM) [%]	remaining activity at 0.5 µM ([7]; 500 nM) [%]	remaining activity at 0.5 µM ([8]; 500 nM) [%]	further results
CCn1cc(-c2ccnc3[nH]c(-c4cccc(CN(C)C)c4)cc23)c(-c2ccc(NC(=O)N(C)C)cc2)n1 [GSK1070916]	98	102	95.1	108	108	102	89.1	101								
O=C(c1cccc(Cl)c1F)N1CCN(Cc2cccc(Nc3nccs3)n2)CC1 [MK-8745]									99.5	101	101	104	97.7	85.8	97.9	% Enzyme Activity (relative to DMSO controls) ([1]; 500 nM): 99.52%; % Enzyme Activity (relative to DMSO controls) ([2]; 500 nM): 98.06%; % Enzyme Activity (relative to DMSO controls) ([3]; 500 nM): 98.09%; % Enzyme Activity (relative to DMSO controls) ([4]; 500 nM): 102.17%; % Enzyme Activity (relative to DMSO controls) ([5]; 500 nM): 8.70%; remaining activity at 0.5 µM ([5]; 500 nM, read-out: % Enzyme Activity (relative to DMSO controls)): 9.04%; % Enzyme Activity (relative to DMSO controls) ([6]; 500 nM): 97.46%; % Enzyme Activity (relative to DMSO controls) ([7]; 500 nM): 85.44%; % Enzyme Activity (relative to DMSO controls) ([8]; 500 nM): 94.59%
O=C(O)[C@]1(Cc2cccc(Nc3nccs3)n2)CC[C@@H](Oc2cccc(Cl)c2F)CC1 [MK-5108]	97.1	92	99	102	1.79	89.9	87.2	101	98.5	83.8	106	103	103	86.5	103	
